Values quoted from earlier work, collected in patent US20240050452A1, “USE OF C[…] THE TREATMENT OF SEIZURES ASSOCIATED WITH EPILEPSY SYNDROMES IN PATIENTS TAKING BRIVARACETAM” (GW Research Limited, priority 2020, published 2024).

Test system: seizure frequencies
Settings: increasing CBD dose combined with a constant BRV dose; seizure types not disclosed

C=C(C)[C@@H]1CCC(C)=C[C@H]1c1c(O)cc(CCCCC)cc1O [CBD, cannabidiol]
effect on seizure frequencies: reductions in seizure frequencies
